Laboratory results taken from patent publication US8791107B2, “N-substituted oxazinopteridines and oxazinopteridinones” (Takeda Pharmaceutical Company Limited, priority 2011, dated 2014).

Each molecule was assayed against T1, PI3Kδ (Homo sapiens, UniProt O00329) (assay: PI3Kδ inhibition, modified PIK3CD Adapta TR-FRET assay). Details: recombinant GST-tagged full length PIK3CD co-expressed with PIK3R1 (p85α); 2 μM ATP, 50 μM PIP2.
T1 construct: The protein is full length and co-expressed with untagged PIK3R1; GST; purchased Invitrogen PV5274
Assay type: biochemical
Experimental: The activity of compounds as PI3Kδ inhibitors may be determined by a variety of methods, including in vitro and in vivo methods. The following in vitro assay measures a test compound's ability to inhibit PI3Kδ-mediated phosphorylation of PIP2 and ATP.
Recombinant GST-tagged PIK3CD is purchased from Invitrogen (Part Number: PV5274). The protein is full length and co-expressed with untagged PIK3R1, phosphoinositide-3-kinase regulatory subunit 1 (p85α). The protein is stored at −20° C. in 50 mM TRIS (pH 7.5), 150 mM NaCl, 0.5 mM EDTA, 0.02% Triton® X-100, 2 mM DTT, and 50% glycerol.
A modified PIK3CD Adapta® assay (Invitrogen, Carlsbad, Calif.) is used to measure PI3Kδ inhibition of the example compounds. The assay has two phases. In the first phase, kinase reaction components, which include the enzyme (PIK3CD), substrates (PIP2, ATP), test compound (inhibitor), and assay buffer are added to each well, and the reaction is allowed to incubate for a pre-determined period of time. […] In the presence of the inhibitor, the amount of ADP formed by the kinase reaction is reduced, and the resulting intact antibody-tracer interaction maintains a high TR-FRET signal.
The reaction buffer contains 50 mM Hepes (pH 7.5), 3 mM MgCl2, 1 mM EGTA, 100 mM NaCl, 0.03% CHAPS; 2 mM DTT is added fresh prior to each experiment. […] Next, test compounds (2 μL) from a source plate (5% dilution plate) are introduced into the wells. The final DMSO concentration in each assay well is 1%. […] Other wells contain test compounds serially diluted across the plate 11 times for a total of 12 data points. The kinase reactions are carried out at room temperature and are initiated by the addition of 4 μL of solution containing 2 μM ATP and 50 μM PIP2. […] This emission signal is referenced or “ratioed” to the emission from Eu at 620 nm. […] The percent inhibition for a given inhibitor concentration is computed from % conversion for the reaction and for the positive and negative controls.

T1 sequence (O00329 whole entry): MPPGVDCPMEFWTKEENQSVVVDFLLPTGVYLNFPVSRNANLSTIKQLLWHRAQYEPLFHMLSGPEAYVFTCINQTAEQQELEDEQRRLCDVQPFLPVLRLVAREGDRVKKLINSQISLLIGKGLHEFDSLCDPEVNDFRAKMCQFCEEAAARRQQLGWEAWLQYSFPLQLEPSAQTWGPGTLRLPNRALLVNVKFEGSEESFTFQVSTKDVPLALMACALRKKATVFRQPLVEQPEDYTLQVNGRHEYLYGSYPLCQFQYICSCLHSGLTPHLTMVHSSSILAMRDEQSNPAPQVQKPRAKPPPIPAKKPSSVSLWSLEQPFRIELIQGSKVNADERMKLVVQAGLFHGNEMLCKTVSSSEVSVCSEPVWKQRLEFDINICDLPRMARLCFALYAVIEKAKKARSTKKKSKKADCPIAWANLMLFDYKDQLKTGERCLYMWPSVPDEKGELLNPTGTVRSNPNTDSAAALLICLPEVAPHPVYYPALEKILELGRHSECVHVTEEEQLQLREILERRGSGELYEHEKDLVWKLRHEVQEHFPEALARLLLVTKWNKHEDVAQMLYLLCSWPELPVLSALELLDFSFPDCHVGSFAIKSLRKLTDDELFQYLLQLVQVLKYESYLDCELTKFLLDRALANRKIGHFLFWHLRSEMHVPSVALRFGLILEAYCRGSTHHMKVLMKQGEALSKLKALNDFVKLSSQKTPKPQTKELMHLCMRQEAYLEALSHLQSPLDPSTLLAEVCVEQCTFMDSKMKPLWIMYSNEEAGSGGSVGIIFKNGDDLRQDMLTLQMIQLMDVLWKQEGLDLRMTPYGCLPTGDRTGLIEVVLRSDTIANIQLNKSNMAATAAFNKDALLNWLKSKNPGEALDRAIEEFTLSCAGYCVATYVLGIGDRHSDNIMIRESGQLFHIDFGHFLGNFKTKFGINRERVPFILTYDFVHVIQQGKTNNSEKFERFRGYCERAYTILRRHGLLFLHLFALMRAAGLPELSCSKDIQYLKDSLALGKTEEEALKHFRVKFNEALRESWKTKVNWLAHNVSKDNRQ
T1 sequence (P27986 whole entry partner): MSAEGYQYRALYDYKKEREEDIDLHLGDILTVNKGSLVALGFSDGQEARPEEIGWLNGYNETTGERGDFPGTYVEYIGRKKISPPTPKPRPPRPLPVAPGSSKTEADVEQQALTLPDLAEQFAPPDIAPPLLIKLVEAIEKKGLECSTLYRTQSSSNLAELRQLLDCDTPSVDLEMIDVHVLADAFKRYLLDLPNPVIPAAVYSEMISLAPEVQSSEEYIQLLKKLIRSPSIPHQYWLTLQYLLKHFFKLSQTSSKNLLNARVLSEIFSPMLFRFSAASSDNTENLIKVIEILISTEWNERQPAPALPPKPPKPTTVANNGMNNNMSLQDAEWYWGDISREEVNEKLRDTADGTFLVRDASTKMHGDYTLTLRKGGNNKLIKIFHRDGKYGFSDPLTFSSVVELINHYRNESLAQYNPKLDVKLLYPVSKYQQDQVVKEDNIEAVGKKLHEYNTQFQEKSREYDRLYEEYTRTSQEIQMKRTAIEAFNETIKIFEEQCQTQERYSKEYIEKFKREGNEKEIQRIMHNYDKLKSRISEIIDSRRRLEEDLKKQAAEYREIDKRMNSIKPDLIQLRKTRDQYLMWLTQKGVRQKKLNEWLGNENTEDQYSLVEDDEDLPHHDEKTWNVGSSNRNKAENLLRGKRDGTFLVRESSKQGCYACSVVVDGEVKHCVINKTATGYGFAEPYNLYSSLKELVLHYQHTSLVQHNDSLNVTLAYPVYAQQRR

Q: Which “PI3Kδ Inhibition (pIC50)” value does the source give for CNC(=O)Nc1ccc(-c2ncc3c(n2)N2CCOC[C@H]2C(=O)N3[C@@H](C)c2ccc(C)cc2)cc1 (single isomer, unassigned) [Example 86] here?
A: 8.1

Q: Which “PI3Kδ Inhibition (pIC50)” value does the source give for CNC(=O)Nc1ccc(-c2ncc3c(n2)N2CCOC[C@@H]2C(=O)N3[C@@H](C)c2ccc(C)cc2)cc1 (single isomer, unassigned) [Example 87] here?
A: 7.1

Same assay, conditions: recombinant GST-tagged full length PIK3CD co-expressed with PIK3R1 (p85α); 2 μM ATP, 50 μM PIP2; read-out: PI3Kδ Inhibition (pIC50) (converted)

Q: For C[C@@H](c1ccccc1)N1C(=O)C2COCCN2c2nc(-c3cc[nH]n3)ncc21 (mixture of isomers) [Example 97, 5-((5)-1-phenylethyl)-2-(1H-pyrazol-3-yl)-6a,7,9,10-tetrahydro-[1,4]oxazino[3,4-h]pteridin-6(5H)-one], which IC50 is on record?
A: 1000 nM

Q: C[C@@H](c1ccc(Cl)cc1)N1C(=O)C2COCCN2c2nc(-c3cnc(N)nc3)ncc21 (mixture of isomers) [Example 162] was tested. Which IC50 did it give?
A: 6.31 nM

Q: For C[C@@H](c1ccc(Cl)cc1)N1C(=O)C2COCCN2c2nc(-c3cccc4[nH]ccc34)ncc21 (mixture of isomers) [Example 163, 5-((S)-1-(4-chlorophenyl)ethyl)-2-(1H-indol-4-yl)-6a,7,9,10-tetrahydro-[1,4]oxazino[3,4-h]pteridin-6(5H)-one], which IC50 is on record?
A: 31.6 nM

Q: How did the IC50 turn out when CNC(=O)Nc1ccc(-c2ncc3c(n2)N2CCOCC2C(=O)N3[C@@H](C)c2ccc(Cl)cc2)cc1 (single isomer, unassigned) [Example 85] was run?
A: 12.6 nM

Q: With O=C1Nc2cnc(-c3cccc4[nH]ccc34)nc2N2CCOC[C@H]12 (single isomer, unassigned) [Example 149] as the molecule, how does the IC50 read?
A: 200 nM

Q: O=C1Nc2cnc(-c3cccc4[nH]ccc34)nc2N2CCOC[C@@H]12 (single isomer, unassigned) [Example 150] was tested. Which IC50 did it give?
A: 5.01 nM

Q: Cc1ccc([C@H](C)N2C(=O)[C@@H]3COCCN3c3nc(-c4cccc5[nH]ccc45)ncc32)cc1 (single isomer, unassigned) [Example 153] was tested. Which IC50 did it give?
A: 39.8 nM

Q: CNC(=O)Nc1ccc(-c2ncc3c(n2)N2CCOCC2C(=O)N3[C@@H](C)c2ccc(Cl)cc2)cc1 (single isomer, unassigned) [Example 161] was tested. Which IC50 did it give?
A: 3.98 nM

Q: Nc1ncc(-c2ncc3c(n2)N2CCOCC2CN3)cn1 (centres unmarked) [Example 1, 5-(5,6,6a,7,9,10-hexahydro-[1,4]oxazino[3,4-h]pteridin-2-yl)pyrimidin-2-amine] was tested. Which IC50 did it give?
A: 31.6 nM

Q: For c1cc(-c2ncc3c(n2)N2CCOCC2CN3)c2cc[nH]c2c1 (centres unmarked) [Example 2, 2-(1H-indol-4-yl)-5,6,6a,7,9,10-hexahydro-[1,4]oxazino[3,4-h]pteridine], which IC50 is on record?
A: 50.1 nM

Q: How did the IC50 turn out when c1cc(-c2ncc3c(n2)N2CCOCC2CN3CC2CC2)c2cc[nH]c2c1 (centres unmarked) [Example 3, 5-(cyclopropylmethyl)-2-(1H-indol-4-yl)-5,6,6a,7,9,10-hexahydro-[1,4]oxazino[3,4-h]pteridine] was run?
A: 5.01 nM

Q: With CS(=O)(=O)c1ccc(CN2CC3COCCN3c3nc(-c4cnc(N)nc4)ncc32)cc1 (centres unmarked) [Example 4, 5-(5-(4-(methylsulfonyl)benzyl)-5,6,6a,7,9,10-hexahydro-[1,4]oxazino[3,4-h]pteridin-2-yl)pyrimidin-2-amine] as the molecule, how does the IC50 read?
A: 3.98 nM

Q: How did the IC50 turn out when CS(=O)(=O)c1ccc(CN2CC3COCCN3c3nc(-c4cccc5[nH]ccc45)ncc32)c(Cl)c1 (centres unmarked) [Example 5, 5-(2-chloro-4-(methylsulfonyl)benzyl)-2-(1H-indol-4-yl)-5,6,6a,7,9,10-hexahydro-[1,4]oxazino[3,4-h]pteridine] was run?
A: 10 nM

Q: CNC(=O)Nc1ccc(-c2ncc3c(n2)N2CCOCC2CN3Cc2ccc(S(C)(=O)=O)cc2Cl)cc1 (centres unmarked) [Example 6, 1-(4-(5-(2-chloro-4-(methylsulfonyl)benzyl)-5,6,6a,7,9,10-hexahydro-[1,4]oxazino[3,4-h]pteridin-2-yl)phenyl)-3-methylurea] was tested. Which IC50 did it give?
A: 10 nM

Q: How did the IC50 turn out when CS(=O)(=O)c1ccc(CN2CC3COCCN3c3nc(-c4cnc(N)nc4)ncc32)c(Cl)c1 (centres unmarked) [Example 7, 5-(5-(2-chloro-4-(methylsulfonyl)benzyl)-5,6,6a,7,9,10-hexahydro-[1,4]oxazin[3,4-h]pteridin-2-yl)pyrimidin-2-amine] was run?
A: 7.94 nM
